Reference: paper PMC11973282, “RAS70 peptide targets multiforme glioblastoma by binding to the plasma membrane heat shock protein HSP70” (Frontiers in Oncology, 2025)
Where a SMILES comes first, the peptide text is derived from it. [ ]: non-standard residue; d: D form. βAla = NCCC(=O)O

Experiments:
[1] = tested on: human U87 glioblastoma cells; experiment: Flow cytometry of FITC-labeled peptide internalization, 24 h (also with antibody pre-treatment); assay type: cell-based
Procedure: (§1) The binding of the TKD-sCy5, RAS70-sCy5, and NGL-RGD-sCy5 peptides were analyzed using a CytoFLEX flow cytometer (Beckman Coulter, USA). A single cell suspension of C6, GL261, T98G, U87, U251, ANI, IBD, TMS (0.15×10^6 cells in mL^-1) were incubated for 30 minutes on ice in the dark with peptides in concentration of 75 μg/mL, and then washed with cold PBS solution. Cells without peptides were used as controls. To evaluate incorporation of the fluorescently-labeled peptides for longer period of co-incubation of 24 h cells (C6, GL261, U87, U251) were treated with FITC-labeled peptides, then washed with PBS and assessed on a CytoFLEX flow cytometer (Beckman Coulter, USA). Following FACS analysis cell pellet was further evaluated employing confocal microscopy Leica TCS SP8 (Leica Microsystems, Germany).
(§2) The incorporation of peptides over longer periods of co-incubation with brain tumor cells was additionally analyzed using a Cytomics FC500 flow cytometer (BeckmanCoulter, USA). Tumor cells (C6, GL261, U87, U251) were incubated with peptides (concentration 50 μg/mL) for 24 hours, washed with PBS. Internalization of FITC-labeled peptides was assessed by determining the mean fluorescence intensity (MFI). According to the study data ( Figure 6A ), it was shown that TKD peptide accumulated in all cell lines – 2120 ± 152 (C6), 2099 ± 107 (GL261), 2145 ± 189 (U87), 2373 ± 201 (U251) compared to the control scramble peptide (NGL) – 378 ± 48 (C6), 344 ± 57 (GL261), 301 ± 66 (U87), 313 ± 56 (U251) (P<0.001). […] Following FACS analysis the cell pellet was collected and evaluated for peptides cell uptake employing confocal microscopy ( Figure 6B ). The obtained microscopy data confirmed higher accumulation of RAS70 peptide in studied cell lines as compared to TKD or scramble peptides.
(§3) Figure 6 Evaluation of the mHsp70-targeting peptides internalization by glioma cells. (A) Flow cytometric evaluation of FITC-labeled peptide accumulation in tumor cell lines (rat glioma C6, mouse glioma GL261, human glioblastoma U87 and U251) after co-incubation for 24 hours. […] (B) Confocal microscopy assessment of FITC-labeled peptide accumulation in tumor cell lines (rat glioma C6, mouse glioma GL261, human glioblastoma U87 and U251) after co-incubation for 24 hours. […] (C) Analysis of the peptides uptake by human U87 glioblastoma cells following co-incubation for 24 hours.
To evaluate the mHsp70-mediated uptake of the peptides prior to co-incubation with either TKD or RAS70 peptides cells were pre-treated with anti-Hsp70 antibodies (SPA-810, SPA-815) that are known to target the membrane-bound chaperone on cancer cells ([37]). […] The tripeptide RGD (Arg-Gly-Asp) motif is known to bind to integrins, including αvβ3 and αvβ5 expressed on brain tumor cells and tumor endothelial cells ([38], [39]). […] As expected, we observed the decrease of NGL-RGD and RAS70 internalization by tumor cells but not of TKD or NGL peptides ( Figure 6C ).

[2] = tested on: C6, GL261, and T98G cells; experiment: MTT test, overall statement for all cell lines studied; details: fluorescently labeled peptides, 7.5, 75, 750 µg/mL, 24, 48 and 72 hours
Procedure: 3-(4,5-dimethylthiazol-2-yl)-2,5-diphenyltetrazolium bromide (MTT) assay was performed to evaluate the cytotoxic effect of TKD-sCy5, RAS70-sCy5, and NGL-RGD-sCy5 peptides. The C6, GL261, and T98G cells were seeded in 96-well plates (Thermo Fisher Scientific, Waltham, USA) at concentration of 5*10^3 cells in 100 µL per well, plates were incubated at 37°C in 5% CO2. After 24 hours, peptides were added to the culture medium for final concentration of 7.5, 75, and 750 μg/mL; plates were incubated for 24, 48 and 72 hours. […] At the end of the incubation period, 1 mg/mL MTT solution was added for 4 hours and dissolved with DMSO. The absorbance was measured at 570 nm using Varioskan LUX Multimode Microplate Reader (Thermo Fisher Scientific, Waltham, USA).
Subsequently, we analyzed the cytotoxic effect of the peptides (RAS70, TKD, NGL, NGL-RGD) using the MTT test at various peptides concentrations (7.5, 75, 750 µg/mL) and co-incubation times of 24, 48 and 72 hours.

C6 (rat glioma) cells = experiment: Flow cytometry of FITC-labeled peptide internalization, 24 h; assay type: cell-based; details: 50 μg/mL, M ± SE, 3 independent experiments
Procedure: as §1, §2, §3

[3] = tested on: GL261 (mouse glioma) cells; experiment: as above; assay type: cell-based; details: 50 μg/mL, M ± SE, 3 independent experiments
Procedure: as §1, §2, §3

[4] = tested on: human glioblastoma U251 cells; experiment: as above; assay type: cell-based; details: 50 μg/mL, M ± SE, 3 independent experiments
Procedure: as §1, §2, §3

[5] = tested on: U87 cells (lower chamber; HUVEC and astrocytes barrier); experiment: Transwell BBB model, peptide passage and accumulation in tumor cells (also with antibody pre-treatment); assay type: in vitro ADME, human
Text: Fluorescently labeled cells were counted in the lower chamber.
Next, we assessed the mHsp70- and integrin (αvβ3, αvβ5)-mediated penetration of the TKD and RAS70 via the BBB ( Figure 9B ). […] When anti-αvβ3 and anti-αvβ5 mAbs were employed, we detected the decrease of NGL-RGD and RAS70 penetration via the BBB but not the NGL and TKD peptides.

[6] = tested on: C6 cells (lower chamber; HUVEC and astrocytes barrier)
Procedure: (§4) Then, a peptide labeled with a fluorescent label was introduced into the upper chamber and co-incubation was carried out for 12, 24 and 36 hours. At the end of the incubation, the tumor cells were washed with cold phosphate-buffered saline (PBS) and fixed with a 4% solution of paraformaldehyde in PBS. Nuclei were stained with 4’,6-diamidino-2-phenylindole (DAPI). Fluorescent images were obtained using a Leica TCS SP8 confocal microscope (Leica, Germany). To avoid possible cross-interference of different fluorochromes, images for DAPI and FITC were obtained using a sequential sample scanning method. Fluorescently labeled cells were counted in the lower chamber. To estimate the mHsp70-mediated uptake of chaperone-targeted peptides tumor cells prior to incubation were pre-treated with anti-Hsp70 monoclonal antibodies SPA-810 (1:250, Stressgen) and SPA-815 (1:250 Stressgen). To exclude integrin (αvβ3, αvβ5)-mediated penetration of RAS70 tumor cells prior to incubation with peptides were pre-treated with anti- αvβ3 (1:200 clone LM609, ZMS1030, Sigma-Aldrich, USA), -αvβ5 (1:200 clone P1F6, MAB1961Z, Sigma-Aldrich, USA) monoclonal antibodies.
(§5) Then, a peptide labeled with a fluorescent dye (FITC) was introduced into the upper chamber and co-incubation was carried out for 12, 24 and 36 hours. At the end of the incubation, the tumor cells were washed with cold phosphate-buffered saline (PBS) and fixed with a 4% solution of paraformaldehyde in PBS. Nuclei were stained with 4’,6-diamidino-2-phenylindole (DAPI).
(§6) Data from 3 independent experiments are presented as M ± SE. […] Data from 3 independent experiments are presented as M ± SE. ** p < 0.01 for testing mean expression levels.

[7] = tested on: GL261 cells (lower chamber; HUVEC and astrocytes barrier)
Procedure: as §4, §5, §6

[8] = tested on: U251 cells (lower chamber; HUVEC and astrocytes barrier)
Procedure: as §4, §5, §6

Row | fluorescently labeled tumor cells in the lower chamber ([5]; transwell BBB model: HUVEC (5×10^5) and astrocytes (5×10^5) in upper chamber, U87 (1×10^4) in lower chamber, FITC-labeled peptide, 36 hours, confocal microscopy count, M ± SE, 3 independent experiments) | penetration via the BBB after combined anti-αvβ3, anti-αvβ5 and anti-Hsp70 mAbs ([5]; transwell, U87 cells, combined antibody treatment) | fluorescently labeled tumor cells in the lower chamber [6] | fluorescently labeled tumor cells in the lower chamber [7] | fluorescently labeled tumor cells in the lower chamber [8] | Molecule | peptide internalization after pre-treatment with anti-αvβ3 and -αvβ5 antibodies ([1]; U87, 24 hours, cells pre-treated with anti-αvβ3 (LM609) and anti-αvβ5 (P1F6) mAbs (1:200)) | peptide uptake after pre-treatment with both anti-Hsp70 and anti-αvβ3/-αvβ5 mAbs ([1]; U87, 24 hours, combination of antibodies) | cytotoxic effect (MTT test) [2] | mean fluorescence intensity (MFI), internalization of FITC-labeled peptide (C6 (rat glioma) cells) | mean fluorescence intensity (MFI), internalization of FITC-labeled peptide [3] | mean fluorescence intensity (MFI), internalization of FITC-labeled peptide [4] | mean fluorescence intensity (MFI), internalization of FITC-labeled peptide ([1]; U87, 50 μg/mL, 24 hours, flow cytometry, M ± SE, 3 independent experiments)
1 |  |  |  |  |  | CC(C)C[C@H](NC(=O)CNC(=O)[C@@H](N)CC(N)=O)C(=O)N[C@H](C(=O)N[C@@H](CC(C)C)C(=O)N[C@@H](CCCCN)C(=O)N[C@@H](CC(N)=O)C(=O)N[C@@H](CC(=O)O)C(=O)N[C@@H](Cc1ccccc1)C(=O)N[C@@H](CO)C(=O)N[C@@H](CCCNC(=N)N)C(=O)N[C@@H](CC(C)C)C(=O)N[C@@H](CCC(=O)O)C(=O)NCC(=O)NCCC(=O)N[C@@H](CCCNC(=N)N)C(=O)NCC(=O)N[C@@H](CC(=O)O)C(=O)O)[C@@H](C)O [NGL-RGD] (H-NGLTLKNDFSRLEG[βAla]RGD-OH) | decrease | significant abrogation | did not reveal the toxic effect |  |  |  | 
2 | 211 ± 41 cells | excluding | 211 ± 29 cells | 188 ± 47 cells | 221 ± 38 cells | NGLTLKNDFSRLEG |  |  |  | 378 ± 48 | 344 ± 57 | 313 ± 56 | 301 ± 66
